Patent US20200361930A1, “BIFUNCTIONAL MOLECULES THAT DEGRADE EGFR” (Hoffmann-La Roche Inc., priority 2018, published 2020)

Molecular target: T1, EGFR T790M/L858R/C797S (Homo sapiens, UniProt P00533, C797S/L858R/T790M)
T1 construct: expressed in transfected cells; host or cells: BaF3 (Ba/F3) cells, lentivirally transduced with a pCDH vector under the PGK promoter
Assay: EGFR degradation assay (cellular), FRET quantification of total EGFR
Assay type: cell-based
Settings: BaF3 EGFR T790M/L858R/C797S cells, 4 hours incubation, total EGFR FRET signal, top concentration 1 μM; read-out: IC50 value (BaF3 EGFR T790M/L858R/C797S degradation)
Description: EGFR Degradation Assay (Cellular)
The BaF3 parental line was purchased from DSMZ and grown in RPMI media supplemented with 10% FBS and 10 ng/mL interleukin 3 (IL-3) (Thermo Fisher Scientific). EGFR mutants (T790M/L853R, T790M/L853R/C797S) were cloned into the pCDH lentiviral vector (SystemBio) under the control of a PGK promoter and confirmed by DNA sequencing. The resulting gene expression vector for each mutant was mixed with packaging vectors and cotransfected into 2×10E6 HEK293T cells (ATCC) in 10 mL of DMEM media to generate lentiviral particles according to the manufacturers protocol (Origene).
Three days post-transfection, the viral supernatant was harvested and filtered. In one well of a 12-well plate, 0.5 mL of viral supernatant was added to 2E6 Ba/F3 cells contained in 1.5 mL of RPMI media including 10% FBS, 10 ng/mL IL-3, and 5 μg/mL polybrene (Invitrogen). The plate was centrifuged at 2,000 rpm for 1 hour at room temperature and infected cells were kept in a tissue culture incubator overnight at 37° C. The cells were washed once in fresh BaF3 media and reseeded at 0.5E6 cells/well of a 12-well plate in media supplemented with 0.5 μg/mL puromycin. The cells were maintained in this media for 3 weeks. IL-3-independent, EGFR mutant transformed cells were routinely maintained in RPMI medium supplemented with 10% FBS.
RPMI 1640 no-phenol red medium and fetal bovine serum (FBS) were purchased from Gibco (Grand Island, N.Y., USA). EGFR total kit and EGFR phospho-Y1068 kit were purchased from Cisbio (Bedford, Mass., USA). BaF3 EGFR mutant cell lines (EGFR T790M/L858R/C797S) cell line was generated in house, according to the protocol reported above. Cell culture flasks and 384-well microplates were acquired from VWR (Radnor, Pa., USA).
EGFR degradation was determined based on quantification of FRET signal using EGFR total kit. The FRET signal detected correlates with total EGFR protein level in cells. Briefly, test compounds were added to the 384-well plate from a top concentration of 1 μM with 11 points, half log titration in quadruplicates. Then, BaF3 EGFR mutant cell lines (EGFR T790M/L858R/C797S) were added into 384-well plates at a cell density of 10000 cells per well. The plates were kept at 37° C. with 5% CO2 for 4 hours. After 4-hour incubation, 4× lysis buffer was added to the cells, and then then microplate was agitated on plate shaker at 500 rpm for 30 minutes at room temperature. Next, total EGFR antibody solution was added to the cells and the cells were incubated for another 4 hours at room temperature. Finally, FRET signal was acquired on EnVision™ Multilabel Reader (PerkinElmer, Santa Clara, Calif., USA). The cells treated in the absence of the test compound were the negative control and lysis buffer with antibody solution only were the positive control.

T1 sequence (P00533 25-1210 T790M/C797S/L858R): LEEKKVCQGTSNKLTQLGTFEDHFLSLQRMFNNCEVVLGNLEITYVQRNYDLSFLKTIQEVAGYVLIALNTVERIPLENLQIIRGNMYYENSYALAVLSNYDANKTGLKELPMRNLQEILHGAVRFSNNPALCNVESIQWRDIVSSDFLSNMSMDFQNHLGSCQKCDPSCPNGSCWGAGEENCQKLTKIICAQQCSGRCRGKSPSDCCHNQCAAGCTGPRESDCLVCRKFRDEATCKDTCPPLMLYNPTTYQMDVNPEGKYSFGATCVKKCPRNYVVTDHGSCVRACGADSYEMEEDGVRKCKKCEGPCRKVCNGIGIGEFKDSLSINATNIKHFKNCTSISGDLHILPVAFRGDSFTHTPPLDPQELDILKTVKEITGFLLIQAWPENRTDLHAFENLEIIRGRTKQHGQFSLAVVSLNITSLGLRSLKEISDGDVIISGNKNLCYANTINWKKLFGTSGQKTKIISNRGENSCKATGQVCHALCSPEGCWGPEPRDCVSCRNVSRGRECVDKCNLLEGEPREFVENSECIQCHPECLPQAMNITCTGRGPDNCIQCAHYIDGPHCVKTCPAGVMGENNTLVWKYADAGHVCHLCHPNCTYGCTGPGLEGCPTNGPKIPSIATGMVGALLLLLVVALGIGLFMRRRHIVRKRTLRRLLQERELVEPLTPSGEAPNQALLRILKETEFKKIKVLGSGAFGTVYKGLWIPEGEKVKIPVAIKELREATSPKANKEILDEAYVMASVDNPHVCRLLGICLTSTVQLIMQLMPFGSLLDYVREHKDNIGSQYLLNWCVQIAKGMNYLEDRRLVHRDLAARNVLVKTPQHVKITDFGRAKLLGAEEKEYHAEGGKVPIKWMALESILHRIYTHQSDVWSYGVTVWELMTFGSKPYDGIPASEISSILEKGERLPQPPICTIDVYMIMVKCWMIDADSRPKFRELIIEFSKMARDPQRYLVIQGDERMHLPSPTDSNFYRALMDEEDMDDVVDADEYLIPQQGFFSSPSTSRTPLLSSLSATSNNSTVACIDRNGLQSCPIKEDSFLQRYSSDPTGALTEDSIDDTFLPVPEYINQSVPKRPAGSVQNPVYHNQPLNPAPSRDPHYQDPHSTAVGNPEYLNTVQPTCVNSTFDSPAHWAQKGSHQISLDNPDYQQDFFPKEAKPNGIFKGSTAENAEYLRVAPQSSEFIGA

SMILES	DC50 [nM]
O=C1CCC(N2C(=O)c3cccc(NCCCC(=O)N4CCN(Cc5ccc(C#Cc6ccc7c(c6)C(=O)N(C(C(=O)Nc6nccs6)c6ccccc6)C7)cn5)CC4)c3C2=O)C(=O)N1 (racemic) [Example 4, (2RS)-2-[6-[2-[6-[[4-[4-[[2-[(3RS)-2,6-Dioxo-3-piperidyl]-1,3-dioxo-isoindolin-4-yl]amino]butanoyl]piperazin-1-yl]methyl]-3-pyridyl]ethynyl]-1-oxo-isoindolin-2-yl]-2-phenyl-N-thiazol-2-yl-acetamide]	14
O=C1CCC(N2C(=O)c3cccc(NCC(=O)N4CCC(NC(=O)c5ccc(C#Cc6ccc7c(c6)C(=O)N(C(C(=O)Nc6nccs6)c6ccccc6)C7)cn5)CC4)c3C2=O)C(=O)N1 (racemic) [Example 5, N-[1-[2-[[2-[(3RS)-2,6-Dioxo-3-piperidyl]-1,3-dioxo-isoindolin-4-yl]amino]acetyl]-4-piperidyl]-5-[2-[3-oxo-2-[(1RS)-2-oxo-1-phenyl-2-(thiazol-2-ylamino)ethyl]isoindolin-5-yl]ethynyl]pyridine-2-carboxamide]	18
O=C1CCC(N2C(=O)c3cccc(NCCCCN4CCC(NC(=O)c5ccc(C#Cc6ccc7c(c6)C(=O)N(C(C(=O)Nc6nccs6)c6ccccc6)C7)cn5)CC4)c3C2=O)C(=O)N1 (racemic) [Example 6, N-[1-[4-[[2-[(3RS)-2,6-Dioxo-3-piperidyl]-1,3-dioxo-isoindolin-4-yl]amino]butyl]-4-piperidyl]-5-[2-[3-oxo-2-[(1RS)-2-oxo-1-phenyl-2-(thiazol-2-ylamino)ethyl]isoindolin-5-yl]ethynyl]pyridine-2-carboxamide]	21
O=C1CCC(N2C(=O)c3cccc(NCCCC(=O)N4CCC(NC(=O)c5ccc(C#Cc6ccc7c(c6)C(=O)N(C(C(=O)Nc6nccs6)c6ccccc6)C7)cn5)CC4)c3C2=O)C(=O)N1 (racemic) [Example 2, N-[1-[4-[[2-[(3RS)-2,6-Dioxo-3-piperidyl]-1,3-dioxo-isoindolin-4-yl]amino]butanoyl]-4-piperidyl]-5-[2-[3-oxo-2-[(1RS)-2-oxo-1-phenyl-2-(thiazol-2-ylamino)ethyl]isoindolin-5-yl]ethynyl]pyridine-2-carboxamide]	21
O=C1CCC(N2C(=O)c3cccc(NCCCC(=O)N4CCC(NC(=O)c5ccc(C#Cc6ccc7c(c6)C(=O)N(C(C(=O)Nc6nccs6)c6cc(F)ccc6O)C7)cn5)CC4)c3C2=O)C(=O)N1 (racemic) [Example 7, N-[1-[4-[[2-[(3RS)-2,6-Dioxo-3-piperidyl]-1,3-dioxo-isoindolin-4-yl]amino]butanoyl]-4-piperidyl]-5-[2-[2-[(1RS)-1-(5-fluoro-2-hydroxy-phenyl)-2-oxo-2-(thiazol-2-ylamino)ethyl]-3-oxo-isoindolin-5-yl]ethynyl]pyridine-2-carboxamide]	12
O=C1CCC(N2C(=O)c3cccc(NCCCCCC(=O)N4CCN(Cc5ccc(C#Cc6ccc7c(c6)C(=O)N(C(C(=O)Nc6nccs6)c6ccccc6)C7)cc5)CC4)c3C2=O)C(=O)N1 (racemic) [Example 1, (2RS)-2-[6-[2-[4-[[4-[6-[[2-[(3RS)-2,6-Dioxo-3-piperidyl]-1,3-dioxo-isoindolin-4-yl]amino]hexanoyl]piperazin-1-yl]methyl]phenyl]ethynyl]-1-oxo-isoindolin-2-yl]-2-phenyl-N-thiazol-2-yl-acetamide]	40
O=C1CCC(N2C(=O)c3cccc(NCCCC(=O)N4CCN(Cc5ccc(C#Cc6ccc7c(c6)C(=O)N(C(C(=O)Nc6nccs6)c6ccccc6)C7)cc5)CC4)c3C2=O)C(=O)N1 (racemic) [Example 3, (2RS)-2-[6-[2-[4-[[4-[4-[[2-[(3RS)-2,6-Dioxo-3-piperidyl]-1,3-dioxo-isoindolin-4-yl]amino]butanoyl]piperazin-1-yl]methyl]phenyl]ethynyl]-1-oxo-isoindolin-2-yl]-2-phenyl-N-thiazol-2-yl-acetamide]	35

Next, values leading:

DC50 [nM]	SMILES
52	O=C1CCC(N2C(=O)c3cccc(NCCCCN4CCC(NC(=O)c5ccc(C#Cc6ccc7c(c6)C(=O)N(C(C(=O)Nc6ccccn6)c6ccccc6)C7)cn5)CC4)c3C2=O)C(=O)N1 (racemic) [Example 9, N-[1-[4-[[2-[(3RS)-2,6-Dioxo-3-piperidyl]-1,3-dioxo-isoindolin-4-yl]amino]butyl]-4-piperidyl]-5-[2-[3-oxo-2-[(1RS)-2-oxo-1-phenyl-2-(2-pyridylamino)ethyl]isoindolin-5-yl]ethynyl]pyridine-2-carboxamide]
48	O=C1CCC(N2C(=O)c3ccc(N4CCC(CN5CCC(NC(=O)c6ccc(C#Cc7ccc8c(c7)C(=O)N(C(C(=O)Nc7ccccn7)c7ccccc7)C8)cn6)CC5)CC4)cc3C2=O)C(=O)N1 (racemic) [Example 11, N-[1-[[1-[2-[(3RS)-2,6-Dioxo-3-piperidyl]-1,3-dioxo-isoindolin-5-yl]-4-piperidyl]methyl]-4-piperidyl]-5-[2-[3-oxo-2-[(1RS)-2-oxo-1-phenyl-2-(2-pyridylamino)ethyl]isoindolin-5-yl]ethynyl]pyridine-2-carboxamide]
20	O=C1CCC(N2C(=O)c3cccc(NCCCCN4CCC(NC(=O)c5ncc(C#Cc6ccc7c(c6)C(=O)N(C(C(=O)Nc6nccs6)c6ccccc6)C7)cc5F)CC4)c3C2=O)C(=O)N1 (racemic) [Example 8, N-[1-[4-[[2-[(3RS)-2,6-Dioxo-3-piperidyl]-1,3-dioxo-isoindolin-4-yl]amino]butyl]-4-piperidyl]-3-fluoro-5-[2-[3-oxo-2-[(1RS)-2-oxo-1-phenyl-2-(thiazol-2-ylamino)ethyl]isoindolin-5-yl]ethynyl]pyridine-2-carboxamide]
38	O=C1CCC(N2C(=O)c3cccc(N4CCC(CC(=O)N5CCN(Cc6ccc(C#Cc7ccc8c(c7)C(=O)N(C(C(=O)Nc7ccccn7)c7ccccc7)C8)cn6)CC5)CC4)c3C2=O)C(=O)N1 (racemic) [Example 12, (2RS)-2-[6-[2-[6-[[4-[2-[1-[2-[(3RS)-2,6-Dioxo-3-piperidyl]-1,3-dioxo-isoindolin-4-yl]-4-piperidyl]acetyl]piperazin-1-yl]methyl]-3-pyridyl]ethynyl]-1-oxo-isoindolin-2-yl]-2-phenyl-N-(2-pyridyl)acetamide]
13	O=C1CCC(N2C(=O)c3cccc(NCCCCN4CCC(NC(=O)c5ccc(C#Cc6ccc7c(c6)C(=O)N(C(C(=O)Nc6nccs6)c6cc(F)ccc6O)C7)cn5)CC4)c3C2=O)C(=O)N1 (racemic) [Example 10, N-[1-[4-[[2-[(3RS)-2,6-Dioxo-3-piperidyl]-1,3-dioxo-isoindolin-4-yl]amino]butyl]-4-piperidyl]-5-[2-[2-[(1RS)-1-(5-fluoro-2-hydroxy-phenyl)-2-oxo-2-(thiazol-2-ylamino)ethyl]-3-oxo-isoindolin-5-yl]ethynyl]pyridine-2-carboxamide]
